The values that follow come from patent publication US20220378790A1, “PHARMACEUTICAL PREPARATION COMPRISING AN AMIDE DERIVATIVE INHIBITING THE GROWTH OF CANCER CELL AND A PHARMACEUTICAL PRODUCT CONTAINING THE SAME” (Hanmi Pharm Co., Ltd., priority 2019, published 2022).

The nature of this series: Stability test at 60° C. severe condition, impurity IV. In kind it is physicochemical. On the procedure: The stability of the tablets of Examples 6 to 9 and Comparative Example 9 above was evaluated. In addition, the stability was evaluated using HM781-36B itself as Comparative Example 11.
Specifically, each of the tablets of Examples 6 to 9 and Comparative Example 9 above was packaged with Formpack® Dessiflex Blister (where to get: amcor), and the HM781-36B of Comparative Example 11 was packaged in an HDPE bottle, and then these were stored for 1, 2, and 4 weeks at a temperature of 60° C., which is a severe condition. The stability evaluation was performed for the samples stored for the above period according to the analysis conditions of Experimental Example 6.

Consider `C=CC(=O)N1CCC(Oc2cc3c(Nc4ccc(Cl)c(Cl)c4F)ncnc3cc2OC)CC1` [Comparative Example 11], for which the “Amount of Impurity IV” value was determined as 0.06% (1 week, 60° C.); 0.07% (2 weeks, 60° C.); 0.07% (4 weeks, 60° C.); 0.06% (Initial, tablets in Formpack Dessiflex Blister, HM781-36B in HDPE bottle). Moreover, the “Stability (in words)” value (4 weeks under severe conditions, 60° C.) was “very stable results”.
